Measured values published in patent US6461997B1, “Triazole sulfones having herbicidal activity” (Monsanto Technology LLC, priority 1999, dated 2002).

Experiments:
AVEFA (wild oat) = experiment: Post-emergence herbicidal activity, cool season; format: in vivo, Avena fatua; conditions: abraded plants sprayed at 300, 100, 30 and 10 g/ha; about 14 days after treatment
Outline: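 Greenhouse-grown seedlings were abraded 9–14 days after planting, then sprayed at 300, 100, 30 and 10 g/ha in acetone:water (3,100 l/ha). Grown at 18/13 °C day/night, percent inhibition versus abraded unsprayed controls was scored about 14 days after treatment and GR80 assigned.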

[1] = system: BRAPP (broadleaf signalgrass); experiment: Pre-emergence herbicidal activity, warm season; format: in vivo, Brachiaria platyphylla; conditions: for Pre-emergence activity (GR80) BRAPP: GR80 = lowest tested rate (300, 100, 30, 10 g/ha) with 80% or greater inhibition, approx. 14 days after treating, 30/21° C.
Outline: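 GR80 values derive from percent inhibition relative to untreated plants, read roughly 14 days after sowing and pre-emergence soil-surface treatment (compound in 50:50 acetone/water; rates typically 10, 30, 100, 300 g/ha). Warm-season weeds grew at 30/21° C day/night, cool-season ones at 18/13° C; an asterisk marks activity without reaching 80% at the highest rate.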

[2] = system: VERPE (creeping speedwell); experiment: Pre-plant incorporated (PPI) herbicidal activity, cool season; format: in vivo, Veronica persicaria; conditions: for PPI activity GR80, VERPE: pre-plant incorporated, lowest tested rate with 80% or greater inhibition, about 14 days; for inhibition at 10 g/ha / inhibition at 30 g/ha / inhibition at 100 g/ha / inhibition at 300 g/ha / inhibition at 900 g/ha / Percent inhibition VERPE: weed, PPI application; for inhibition at 10 g/ha / inhibition at 30 g/ha / inhibition at 100 g/ha / inhibition at 300 g/ha / inhibition at 900 g/ha: read-out: Percent inhibition VERPE
Description: (§1) In another set of tests, the pre-plant incorporated (PPI) activity of compounds of this invention was evaluated on the same species as for the pre-emergence tests described above. In the PPI tests the following procedure, designed to simulate PPI application, was used.
(§2) A pre-prepared topsoil mixture (described above) was placed in a pot and compacted to a depth of 1.0 to 1.25 cm from the top of the pot. Seeds of each of several monocotyledonous and dicotyledonous annual plant species were placed on top of the soil. A sufficient quantity of soil to cover the seeds and level fill the pot was weighed into an open container. A known amount of the test compound was dissolved or suspended in an organic solvent and applied by spraying to this cover soil. The cover soil was thoroughly mixed to distribute the test compound throughout the cover soil, and was then applied as a cover layer over the seeds. Untreated soil was used as a cover layer for control pots. After treatment the plants were placed in a greenhouse where they received 0.64 cm of overhead irrigation. All subsequent watering consisted of a light overhead mist and/or subirrigation as needed for germination and growth. Tables 9 and 10 below relate to warm season plant species which were placed after pre-emergence treatment in a greenhouse with a 30/21° C. day/night temperature regime. Tables 11 and 12 below relates to cool season plant species placed after pre-emergence treatment in a greenhouse or growth chamber with an 18/13° C. day/night temperature regime. Only the compounds of Examples 1, 6, 8, 11, 13 and 15-20 were included in PPI tests.
(§3) Approximately 14 days after planting and treating, the plants were observed and herbicidal efficacy recorded as percent inhibition by comparison with untreated plants.

XANST (cocklebur) = experiment: Pre-plant incorporated (PPI) herbicidal activity, warm season; format: in vivo, Xanthium strumarium; conditions: PPI application; for inhibition at 10 g/ha / inhibition at 30 g/ha / inhibition at 100 g/ha / inhibition at 300 g/ha / inhibition at 900 g/ha: Xanthium strumarium, read-out: Percent inhibition XANST
Description: as §1, §2, §3

SETVI (green foxtail) = experiment: Pre-emergence herbicidal activity, cool season; format: in vivo, Setaria viridis; conditions: GR80 = lowest tested rate (300, 100, 30, 10 g/ha) with 80% or greater inhibition; approx. 14 days after treating; 18/13° C.
Outline: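 Seeds sown in sterilised fertilised topsoil received surface-applied compound in 50:50 acetone/water, typically at 300, 100, 30 and 10 g/ha, then greenhouse-grown at 30/21° C (warm-season species) or 18/13° C (cool-season species). Percent inhibition versus untreated plants was scored at about 14 days, giving GR80; an asterisk marks activity short of 80% at the top rate.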

SASKR (russian thistle) = experiment: Pre-plant incorporated (PPI) herbicidal activity, cool season; format: in vivo, Salsola kali; conditions: for inhibition at 30 g/ha / inhibition at 100 g/ha / inhibition at 300 g/ha / inhibition at 900 g/ha / inhibition at 10 g/ha: Salsola kali, read-out: Percent inhibition SASKR; for inhibition at 30 g/ha / inhibition at 100 g/ha / inhibition at 300 g/ha / inhibition at 900 g/ha / inhibition at 10 g/ha / Percent inhibition SASKR: weed, PPI application; for PPI activity GR80, SASKR: pre-plant incorporated, lowest tested rate with 80% or greater inhibition, about 14 days
Description: as §1, §2, §3

ECHCG (barnyardgrass) = experiment: Pre-plant incorporated (PPI) herbicidal activity, warm season; format: in vivo, Echinochloa crus-galli; conditions: for inhibition at 10 g/ha / inhibition at 30 g/ha / inhibition at 100 g/ha / inhibition at 300 g/ha / inhibition at 900 g/ha: Echinochloa crus-galli, read-out: Percent inhibition ECHCG; for inhibition at 10 g/ha / inhibition at 30 g/ha / inhibition at 100 g/ha / inhibition at 300 g/ha / inhibition at 900 g/ha / Percent inhibition ECHCG: PPI application; for PPI activity GR80, ECHCG: pre-plant incorporated, lowest tested rate with 80% or greater inhibition, about 14 days
Description: as §1, §2, §3

| Structure (SMILES) | Post-emergence activity GR80, AVEFA (AVEFA (wild oat)) | Pre-emergence activity (GR80) BRAPP [1] | PPI activity GR80, VERPE [2] | inhibition at 10 g/ha (XANST (cocklebur); 10 g/ha) [%] | inhibition at 30 g/ha (XANST (cocklebur); 30 g/ha) [%] | inhibition at 100 g/ha (XANST (cocklebur); 100 g/ha) [%] | inhibition at 300 g/ha (XANST (cocklebur); 300 g/ha) [%] | inhibition at 900 g/ha (XANST (cocklebur); 900 g/ha) [%] | Pre-emergence activity (GR80) SETVI (SETVI (green foxtail)) [g/ha] | inhibition at 30 g/ha (SASKR (russian thistle); 30 g/ha) [%] | inhibition at 100 g/ha (SASKR (russian thistle); 100 g/ha) [%] | inhibition at 300 g/ha (SASKR (russian thistle); 300 g/ha) [%] | inhibition at 900 g/ha (SASKR (russian thistle); 900 g/ha) [%] | PPI activity GR80, SASKR (SASKR (russian thistle)) [g/ha] | inhibition at 10 g/ha (ECHCG (barnyardgrass); 10 g/ha) [%] | inhibition at 30 g/ha (ECHCG (barnyardgrass); 30 g/ha) [%] | inhibition at 100 g/ha (ECHCG (barnyardgrass); 100 g/ha) [%] | inhibition at 300 g/ha (ECHCG (barnyardgrass); 300 g/ha) [%] | inhibition at 900 g/ha (ECHCG (barnyardgrass); 900 g/ha) [%] | PPI activity GR80, ECHCG (ECHCG (barnyardgrass)) [g/ha] | further results |
| --- | --- | --- | --- | --- | --- | --- | --- | --- | --- | --- | --- | --- | --- | --- | --- | --- | --- | --- | --- | --- | --- |
| CCN(CC)C(=O)n1cnc(S(=O)(=O)C(F)(F)Br)n1 [Example 1, 3-(bromodifluoromethylsulfonyl)-1-(N,N-diethylcarbamoyl)-1,2,4-triazole] | [empty] | * (activity observed, at least at highest rate, but <80% inhibition) | 30 g/ha | 0 | 0 | 0 | 0 | 0 | 30 | 80 | 100 | 100 | 100 | 100 | 0 | 20 | 99 | 100 | 100 | 30 | inhibition at 10 g/ha ([1]; Urochloa platyphylla, pre-emergence application, 10 g/ha, read-out: Percent inhibition, weed BRAPP): 0%; inhibition at 30 g/ha ([1]; Urochloa platyphylla, pre-emergence application, 30 g/ha, read-out: Percent inhibition, weed BRAPP): 0%; inhibition at 100 g/ha ([1]; Urochloa platyphylla, pre-emergence application, 100 g/ha, read-out: Percent inhibition, weed BRAPP): 40%; inhibition at 300 g/ha ([1]; Urochloa platyphylla, pre-emergence application, 300 g/ha, read-out: Percent inhibition, weed BRAPP): 70% |
| CCSC(F)(F)S(=O)(=O)c1ncn(C(=O)N(CC)CC)n1 [Example 8, 1-(N,N-diethylcarbamoyl)-3-[difluoro(ethylthio)methylsulfonyl]-1,2,4-triazole] | [empty] | 100 g/ha | 100 g/ha | – | 0 | 0 | 20 | 50 | 100 | 0 | 50 | 90 | 100 | 100 | – | 90 | 100 | 100 | 100 | 30 | – |
| C=C(Br)CC(F)(F)S(=O)(=O)c1ncn(C(=O)N(CC)CC)n1 [Example 19] | [empty] | 300 g/ha | [empty] | 0 | 0 | 0 | 0 | 90 | 100 | 0 | 0 | 60 | 95 | 30 | 20 | 20 | 100 | 100 | 100 | 30 | inhibition at 10 g/ha ([2]; 10 g/ha): 0%; inhibition at 30 g/ha [2]: 40%; inhibition at 100 g/ha ([2]; 100 g/ha): 20%; inhibition at 300 g/ha ([2]; 300 g/ha): 20%; inhibition at 900 g/ha ([2]; 900 g/ha): 99%; inhibition at 10 g/ha (SASKR (russian thistle); 10 g/ha): 0% |
| C=CCC(F)(F)S(=O)(=O)c1ncn(C(=O)N(CC)CC)n1 [Example 17, 1-(N,N-diethylcarbamoyl)-3-[(1,1-difluoro-3-butenyl)sulfonyl]-1,2,4-triazole] | [empty] | 300 g/ha | 10 g/ha | 0 | 0 | 0 | 20 | 100 | 100 | 0 | 0 | 60 | 100 | 30 | 40 | 95 | 100 | 100 | 100 | 30 | inhibition at 10 g/ha ([2]; 10 g/ha): 0%; inhibition at 30 g/ha [2]: 0%; inhibition at 100 g/ha ([2]; 100 g/ha): 0%; inhibition at 300 g/ha ([2]; 300 g/ha): 90%; inhibition at 900 g/ha ([2]; 900 g/ha): 100%; inhibition at 10 g/ha (SASKR (russian thistle); 10 g/ha): 0% |
| CCN(CC)C(=O)n1cnc(S(=O)(=O)C(F)(F)SCc2ccccc2)n1 [Example 10] | [empty] | 300 g/ha | – | – | – | – | – | – | 300 | – | – | – | – | – | – | – | – | – | – | – | Percent inhibition VERPE ([2]; 10 g/ha): 70%; Percent inhibition VERPE ([2]; 100 g/ha): 100%; Percent inhibition VERPE ([2]; 300 g/ha): 100%; Percent inhibition VERPE ([2]; 900 g/ha): 100%; Percent inhibition XANST (XANST (cocklebur); 10 g/ha): 0%; Percent inhibition XANST (XANST (cocklebur); 30 g/ha): 0%; Percent inhibition XANST (XANST (cocklebur); 100 g/ha): 0%; Percent inhibition XANST (XANST (cocklebur); 300 g/ha): 0%; Percent inhibition XANST (XANST (cocklebur); 900 g/ha): 10%; Percent inhibition SASKR (SASKR (russian thistle); 10 g/ha): 10%; Percent inhibition SASKR (SASKR (russian thistle); 30 g/ha): 20%; Percent inhibition SASKR (SASKR (russian thistle); 100 g/ha): 90%; Percent inhibition SASKR (SASKR (russian thistle); 300 g/ha): 100%; Percent inhibition SASKR (SASKR (russian thistle); 900 g/ha): 100%; Percent inhibition ECHCG (ECHCG (barnyardgrass); 10 g/ha): 0%; Percent inhibition ECHCG (ECHCG (barnyardgrass); 30 g/ha): 0%; Percent inhibition ECHCG (ECHCG (barnyardgrass); 100 g/ha): 50%; Percent inhibition ECHCG (ECHCG (barnyardgrass); 300 g/ha): 100%; Percent inhibition ECHCG (ECHCG (barnyardgrass); 900 g/ha): 100% |
| C=C(C)CC(F)(F)S(=O)(=O)c1ncn(C(=O)N(CC)CC)n1 [Example 18] | [empty] | 300 g/ha | [empty] | 0 | 0 | 0 | 0 | 30 | 30 | 0 | 80 | 80 | 100 | 30 | 30 | 100 | 100 | 100 | 100 | 30 | inhibition at 10 g/ha ([2]; 10 g/ha): 0%; inhibition at 30 g/ha [2]: 20%; inhibition at 100 g/ha ([2]; 100 g/ha): 80%; inhibition at 300 g/ha ([2]; 300 g/ha): 95%; inhibition at 900 g/ha ([2]; 900 g/ha): 99%; inhibition at 10 g/ha (SASKR (russian thistle); 10 g/ha): 0% |
